Experimental data published in ChEMBL document CHEMBL1268900, “Discovery of 2-aminoimidazopyridine adenosine A(2A) receptor antagonists” (Bioorg Med Chem Lett, 2010).
pKi: −log10 of the molar value.

Experiments:
Adenosine receptor A2a [1] = target: Adenosine receptor A2a (Homo sapiens, UniProt P29274); experiment: Displacement of [3H]SCH58261 from human recombinant A2A receptor expressed in HEK293 cells; format: cell-based
Adenosine receptor A2a [2] = target: Adenosine receptor A2a (Rattus norvegicus, UniProt P30543); experiment: Antagonist activity at rat A2A receptor by cAMP functional assay
Adenosine receptor A2a (Rattus norvegicus, UniProt P30543), sequence (P30543 whole entry): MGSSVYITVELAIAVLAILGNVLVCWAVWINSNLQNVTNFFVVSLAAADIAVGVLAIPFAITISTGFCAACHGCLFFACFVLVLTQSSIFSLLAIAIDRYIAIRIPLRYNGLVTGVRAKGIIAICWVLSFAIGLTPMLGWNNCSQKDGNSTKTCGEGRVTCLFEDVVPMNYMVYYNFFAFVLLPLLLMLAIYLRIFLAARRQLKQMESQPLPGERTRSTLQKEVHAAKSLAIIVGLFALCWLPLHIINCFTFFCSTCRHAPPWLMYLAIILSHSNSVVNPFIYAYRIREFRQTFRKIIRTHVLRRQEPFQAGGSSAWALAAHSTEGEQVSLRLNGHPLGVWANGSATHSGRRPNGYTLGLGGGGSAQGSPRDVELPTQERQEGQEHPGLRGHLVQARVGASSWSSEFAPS

[3] = Selectivity for human adenosine A2A receptor over adenosine A1 receptor
[4] = Metabolic stability in rat liver microsomes assessed as compound remaining after 30 mins; format: ADME, Microsome; details: read-out: Stability
[5] = Metabolic stability in human liver microsomes assessed as compound remaining after 30 mins; format: ADME, Microsome; details: read-out: Stability
[6] = Plasma concentration in rat at 30 mg/kg, po after 1 hr; format: ADME, organism-based; set-up: dose 30 mg/kg, route oral
[7] = Plasma concentration in rat at 30 mg/kg, po after 4 hrs; format: ADME, organism-based; set-up: dose 30 mg/kg, route oral
[8] = Drug level in rat brain at 30 mg/kg, po after 1 hr; format: ADME, organism-based; set-up: dose 30 mg/kg, route oral; details: read-out: Drug uptake
[9] = Drug level in rat brain at 30 mg/kg, po after 4 hrs; format: ADME, organism-based; set-up: dose 30 mg/kg, route oral; details: read-out: Drug uptake
[10] = Ratio of drug level in brain to plasma of rat at 30 mg/kg, po after 1 hr; format: ADME, organism-based; set-up: dose 30 mg/kg, route oral; details: read-out: BPR
[11] = Ratio of drug level in brain to plasma of rat at 30 mg/kg, po after 4 hrs; format: ADME, organism-based; set-up: dose 30 mg/kg, route oral; details: read-out: BPR

Adenosine receptor A2a (Homo sapiens, UniProt P29274), sequence (P29274 whole entry): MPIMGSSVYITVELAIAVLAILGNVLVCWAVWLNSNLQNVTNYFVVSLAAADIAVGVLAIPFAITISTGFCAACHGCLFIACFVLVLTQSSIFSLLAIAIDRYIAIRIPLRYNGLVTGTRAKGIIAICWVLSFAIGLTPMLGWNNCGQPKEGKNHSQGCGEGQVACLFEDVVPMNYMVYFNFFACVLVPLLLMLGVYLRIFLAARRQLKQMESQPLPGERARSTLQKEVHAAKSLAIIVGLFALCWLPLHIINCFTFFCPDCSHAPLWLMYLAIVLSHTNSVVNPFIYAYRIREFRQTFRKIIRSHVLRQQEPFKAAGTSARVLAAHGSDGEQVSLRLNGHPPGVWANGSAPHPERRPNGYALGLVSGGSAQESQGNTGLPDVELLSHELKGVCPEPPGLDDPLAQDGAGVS

SMILES	pKi (Adenosine receptor A2a [1])	Ratio [3]	other results
COCCCn1c(NC(=O)c2cccc(C#N)c2)nc2cc(C(=O)N(C)C(C)C)cnc21	7.89		pKi (Adenosine receptor A2a [2]): 7.92
N#Cc1cccc(C(=O)Nc2nc3cc(C(=O)N4CCCCC4)cnc3n2Cc2ccc(F)cc2)c1	5.59	3	
CCCCCn1c(NC(=O)c2cccc(C#N)c2)nc2cc(C(=O)N3CCCCC3)cnc21	6.04	3	
COCCCn1c(NC(=O)c2cccc(C#N)c2)nc2ccc(C(=O)N3CCCCC3)cc21	7.77	131	remaining at 0.5 h [4]: 12%; remaining at 0.5 h [5]: 19%; pKi (Adenosine receptor A2a [2]): 7.07
CCOCCCn1c(NC(=O)c2cccc(C#N)c2)nc2cc(C(=O)N3CCOCC3)cnc21	5.96	9	
COCCCn1c(NC(=O)c2cccc(C#N)c2)nc2cc(C(=O)N3CCCCC3)cnc21	8.02		remaining at 0.5 h [4]: 36%; remaining at 0.5 h [5]: 90%
CC(=O)NCCn1c(NC(=O)c2cccc(C#N)c2)nc2cc(C(=O)N3CCCCC3)cnc21	7.43	> 46	
COCCCn1c(NC(=O)c2cccc(C#N)c2)nc2cc(C(=O)N3CCCCC3)ccc21	7.32		remaining at 0.5 h [4]: 16%; remaining at 0.5 h [5]: 67%
CCCCNC(=O)c1cnc2c(c1)nc(NC(=O)c1cccc(C#N)c1)n2CCCOC	7.40		remaining at 0.5 h [4]: 73%; remaining at 0.5 h [5]: 95%
Cn1c(NC(=O)c2cccc(C#N)c2)nc2cc(C(=O)N3CCCCC3)cnc21	6.83	22	
CCN(C)C(=O)c1ccc2nc(NC(=O)c3cccc(C#N)c3)n(CCCOC)c2n1	7.92	80	remaining at 0.5 h [4]: 52%; remaining at 0.5 h [5]: 52%; pKi (Adenosine receptor A2a [2]): 7.64; concentration at 1 h [6]: 4630 ng/mL; concentration at 4 h [7]: 2380 ng/mL; concentration at 1 h [8]: 1050 ng/g; concentration at 4 h [9]: 450 ng/g; Kp at 1 h [10]: 0.23; Kp at 4 h [11]: 0.19
COCCCn1c(NC(=O)c2ccc(C#N)cc2)nc2cc(C(=O)NCc3cccc(OC)c3)ccc21	5.78		
N#Cc1cccc(C(=O)Nc2nc3cc(C(=O)N4CCCCC4)cnc3n2Cc2cccnc2)c1	6.63	4	
COCCCn1c(NC(=O)c2cccc(C#N)c2)nc2cc(C(=O)NCc3cccc(OC)c3)ccc21	7.34		
COCCCn1c(NC(=O)c2cccc(F)c2)nc2cc(C(=O)NCc3cccc(OC)c3)ccc21	6.68		
CC(C)OCCCn1c(NC(=O)c2cccc(C#N)c2)nc2cc(C(=O)N3CCOCC3)cnc21	< 5.00		
CCN(C)C(=O)c1cnc2c(c1)nc(NC(=O)c1cccc(C#N)c1)n2CCCOC	7.60		pKi (Adenosine receptor A2a [2]): 7.62; concentration at 1 h [6]: 4360 ng/mL; concentration at 4 h [7]: 2290 ng/mL; concentration at 1 h [8]: 480 ng/g; concentration at 4 h [9]: 210 ng/g; Kp at 1 h [10]: 0.11; Kp at 4 h [11]: 0.09
COCCCn1c(NC(=O)c2cccc(C#N)c2)nc2cc(C(=O)N(C)C)cnc21	6.91		

SMILES	pKi (Adenosine receptor A2a [1])	Ratio [3]	other results
CCOCCn1c(NC(=O)c2cccc(C#N)c2)nc2cc(C(=O)N3CCOCC3)cnc21	5.48	1.8	
COCCCn1c(NC(=O)c2cccc(C#N)c2)nc2cc(C(=O)N3CCOCC3)cnc21	7.04	61	
N#Cc1cccc(C(=O)Nc2nc3cc(C(=O)N4CCCCC4)cnc3n2C2CCOCC2)c1	6.75	10	
N#Cc1cccc(C(=O)Nc2nc3cc(C(=O)N4CCCCC4)cnc3n2Cc2ccncc2)c1	7.41	39	
COc1ccc(Cn2c(NC(=O)c3cccc(C#N)c3)nc3cc(C(=O)N4CCCCC4)cnc32)cc1	5.91	7	
COCCCn1c(NC(=O)c2cccc(C#N)c2)nc2ccc(C(=O)N(C)C(C)C)nc21	8.60	88	remaining at 0.5 h [4]: 14%; remaining at 0.5 h [5]: 25%; pKi (Adenosine receptor A2a [2]): 8.37
COCCCn1c(NC(=O)c2cccc(Cl)c2)nc2cc(C(=O)NCc3cccc(OC)c3)ccc21	6.36		
COCCCn1c(NC(=O)c2cccc(C(F)(F)F)c2)nc2cc(C(=O)NCc3cccc(OC)c3)ccc21	< 5.00		
COCCCn1c(NC(=O)c2cccc(C#N)c2)nc2cc(C(N)=O)cnc21	5.61		
CCN(CC)C(=O)c1ccc2nc(NC(=O)c3cccc(C#N)c3)n(CCCOC)c2c1	8.51	183	remaining at 0.5 h [4]: 19%; remaining at 0.5 h [5]: 36%; pKi (Adenosine receptor A2a [2]): 7.80
CCN(CC)C(=O)c1cnc2c(c1)nc(NC(=O)c1cccc(C#N)c1)n2CCCOC	7.80		pKi (Adenosine receptor A2a [2]): 7.23
COc1cccc(-n2c(NC(=O)c3cccc(C#N)c3)nc3cc(C(=O)N4CCCCC4)cnc32)c1	6.49	2	
COCCCn1c(NC(=O)c2ccccc2Cl)nc2cc(C(=O)NCc3cccc(OC)c3)ccc21	5.33		
COCCCn1c(N)nc2cc(C(=O)NCc3cccc(OC)c3)ccc21	5.17		
N#Cc1cccc(C(=O)Nc2nc3cc(C(=O)N4CCCCC4)cnc3n2CCCO)c1	7.29	10	
COCCCn1c(NC(=O)c2cccc(OC)c2)nc2cc(C(=O)NCc3cccc(OC)c3)ccc21	5.62		
CCCCNC(=O)c1ccc2c(c1)nc(NC(=O)c1cccc(C#N)c1)n2CCCOC	7.32		remaining at 0.5 h [4]: 38%; remaining at 0.5 h [5]: 27%
